One data set concerns the target T1, TRPC5 F576A (Homo sapiens, UniProt Q9UL62, F576A).
T1 construct: full-length wild-type or mutant TRPC5 was cloned into a pcDNA3.1 vector; expressed in transfected cells; host or cells: HEK293T
Briefly: Inhibition of TRPC5 mutant F576A. To be noted: TRPC5 F576A vs wild type. In kind it is cell-based.

For another data set, the target named is α1A (Homo sapiens, UniProt P35348). The data set can be described thus: cell-based. In kind it is cell-based.
The next data set addresses T2, β2 (Homo sapiens, UniProt P07550).
T2 construct: purchased ICE Bioscience ICESTP™ SafetyOne44 Panel
The data set can be described thus: SafetyOne44 panel: β2. In kind it is cell-based.

The next data set deals with T3, D2 (Homo sapiens, UniProt P14416).
T3 construct: purchased ICE Bioscience ICESTP™ SafetyOne44 Panel
T3 sequence (P14416 whole entry): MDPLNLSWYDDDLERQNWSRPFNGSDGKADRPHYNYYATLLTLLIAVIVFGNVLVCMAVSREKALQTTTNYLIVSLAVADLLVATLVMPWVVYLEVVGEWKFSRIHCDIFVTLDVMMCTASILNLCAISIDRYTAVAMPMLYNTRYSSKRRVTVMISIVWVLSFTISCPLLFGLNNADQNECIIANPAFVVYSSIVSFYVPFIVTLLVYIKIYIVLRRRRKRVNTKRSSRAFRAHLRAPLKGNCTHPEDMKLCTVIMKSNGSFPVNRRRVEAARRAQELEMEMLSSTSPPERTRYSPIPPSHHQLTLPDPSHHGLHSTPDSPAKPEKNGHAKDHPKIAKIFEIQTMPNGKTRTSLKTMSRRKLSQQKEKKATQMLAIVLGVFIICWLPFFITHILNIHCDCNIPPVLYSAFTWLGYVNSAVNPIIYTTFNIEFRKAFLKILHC
The data set can be described thus: cell-based. In kind it is cell-based.

A further data set concerns the target T4, MAO A (Homo sapiens, UniProt P21397).
T4 construct: purchased ICE Bioscience ICESTP™ SafetyOne44 Panel
Briefly: SafetyOne44 panel: MAO A. In kind it is biochemical. The conditions noted are these: 10 μmol/L, read-out: Antagonist JDIC-127 @10 μmol/L.

The next data set addresses T5, ACHE (Homo sapiens, UniProt P22303).
T5 construct: purchased ICE Bioscience ICESTP™ SafetyOne44 Panel
The data set can be described thus: biochemical. The conditions noted are these: 10 μmol/L, read-out: Antagonist JDIC-127 @10 μmol/L.

The target in a further data set is T6, LCK (Homo sapiens, UniProt P06239).
T6 construct: purchased ICE Bioscience ICESTP™ SafetyOne44 Panel
T6 sequence (P06239 whole entry): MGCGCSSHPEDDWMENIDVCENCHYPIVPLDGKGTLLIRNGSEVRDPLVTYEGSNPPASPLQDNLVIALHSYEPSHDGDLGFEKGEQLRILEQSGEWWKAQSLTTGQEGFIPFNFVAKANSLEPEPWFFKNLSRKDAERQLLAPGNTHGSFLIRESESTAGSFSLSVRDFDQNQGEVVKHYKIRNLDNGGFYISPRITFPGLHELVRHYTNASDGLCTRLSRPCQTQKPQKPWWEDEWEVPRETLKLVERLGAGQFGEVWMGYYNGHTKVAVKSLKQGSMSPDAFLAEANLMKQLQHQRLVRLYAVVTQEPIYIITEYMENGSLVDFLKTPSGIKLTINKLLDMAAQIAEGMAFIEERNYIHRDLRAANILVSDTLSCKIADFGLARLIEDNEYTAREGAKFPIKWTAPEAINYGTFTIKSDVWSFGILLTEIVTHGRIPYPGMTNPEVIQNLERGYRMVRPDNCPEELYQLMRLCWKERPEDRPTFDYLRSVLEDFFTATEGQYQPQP
Briefly: biochemical. To be noted: 10 μmol/L, read-out: Antagonist JDIC-127 @10 μmol/L.

A short description of a further data set: in vivo. The conditions noted are these: male, C57BL/6, mouse, B/P.
The target of a further data set is V1a (Homo sapiens, UniProt P37288). The data set can be described thus: cell-based. To be noted: read-out: Antagonist JDIC-127 @10 μmol/L.
Chain of V1a (P37288 whole entry): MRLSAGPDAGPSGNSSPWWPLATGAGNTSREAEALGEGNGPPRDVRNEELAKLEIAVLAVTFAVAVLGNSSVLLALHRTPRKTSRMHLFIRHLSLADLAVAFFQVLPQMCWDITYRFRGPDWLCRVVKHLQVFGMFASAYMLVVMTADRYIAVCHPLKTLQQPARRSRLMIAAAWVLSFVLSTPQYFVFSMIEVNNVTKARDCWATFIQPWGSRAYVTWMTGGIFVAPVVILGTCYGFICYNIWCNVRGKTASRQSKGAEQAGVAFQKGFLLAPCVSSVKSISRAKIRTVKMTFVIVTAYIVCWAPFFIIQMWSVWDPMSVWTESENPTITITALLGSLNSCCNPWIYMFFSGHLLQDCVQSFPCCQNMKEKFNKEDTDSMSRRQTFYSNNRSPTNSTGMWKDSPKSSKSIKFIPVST

Chain of α1A (P35348 whole entry): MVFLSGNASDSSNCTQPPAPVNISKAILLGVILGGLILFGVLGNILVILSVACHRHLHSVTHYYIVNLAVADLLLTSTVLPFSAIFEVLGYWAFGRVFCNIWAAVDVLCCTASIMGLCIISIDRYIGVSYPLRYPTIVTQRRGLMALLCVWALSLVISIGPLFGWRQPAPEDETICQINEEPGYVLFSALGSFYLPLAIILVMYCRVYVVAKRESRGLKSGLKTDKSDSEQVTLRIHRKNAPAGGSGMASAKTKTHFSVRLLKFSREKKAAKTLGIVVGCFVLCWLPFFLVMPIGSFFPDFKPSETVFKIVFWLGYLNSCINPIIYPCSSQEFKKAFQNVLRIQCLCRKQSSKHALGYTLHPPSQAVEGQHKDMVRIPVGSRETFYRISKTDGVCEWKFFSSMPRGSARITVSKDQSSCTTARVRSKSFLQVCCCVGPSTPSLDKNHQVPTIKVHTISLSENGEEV
T2 sequence (P07550 whole entry): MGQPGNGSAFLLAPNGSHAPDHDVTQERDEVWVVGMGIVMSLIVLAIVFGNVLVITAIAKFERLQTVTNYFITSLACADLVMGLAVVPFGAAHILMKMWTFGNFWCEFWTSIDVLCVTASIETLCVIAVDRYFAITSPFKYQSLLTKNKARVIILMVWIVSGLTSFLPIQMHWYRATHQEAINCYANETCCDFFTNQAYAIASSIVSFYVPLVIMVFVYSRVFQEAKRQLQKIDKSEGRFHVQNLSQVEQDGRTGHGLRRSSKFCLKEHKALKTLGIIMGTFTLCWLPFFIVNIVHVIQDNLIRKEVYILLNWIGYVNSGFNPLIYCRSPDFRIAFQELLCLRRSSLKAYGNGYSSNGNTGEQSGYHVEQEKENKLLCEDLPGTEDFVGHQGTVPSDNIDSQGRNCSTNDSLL
T4 sequence (P21397 whole entry): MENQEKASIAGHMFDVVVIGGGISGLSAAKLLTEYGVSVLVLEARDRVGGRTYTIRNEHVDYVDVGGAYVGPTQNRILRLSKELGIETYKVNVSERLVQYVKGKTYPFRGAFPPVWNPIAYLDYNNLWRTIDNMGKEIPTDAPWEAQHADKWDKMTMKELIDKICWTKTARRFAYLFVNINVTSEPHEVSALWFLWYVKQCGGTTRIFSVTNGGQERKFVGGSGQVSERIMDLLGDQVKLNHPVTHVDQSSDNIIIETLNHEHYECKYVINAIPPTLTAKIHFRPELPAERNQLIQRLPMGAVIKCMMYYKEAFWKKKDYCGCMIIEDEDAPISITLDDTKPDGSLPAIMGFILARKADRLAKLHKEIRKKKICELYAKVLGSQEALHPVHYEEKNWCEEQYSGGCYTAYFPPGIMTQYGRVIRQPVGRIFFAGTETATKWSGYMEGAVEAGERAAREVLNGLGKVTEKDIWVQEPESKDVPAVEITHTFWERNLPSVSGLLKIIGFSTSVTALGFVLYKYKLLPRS
T5 sequence (P22303 32-614): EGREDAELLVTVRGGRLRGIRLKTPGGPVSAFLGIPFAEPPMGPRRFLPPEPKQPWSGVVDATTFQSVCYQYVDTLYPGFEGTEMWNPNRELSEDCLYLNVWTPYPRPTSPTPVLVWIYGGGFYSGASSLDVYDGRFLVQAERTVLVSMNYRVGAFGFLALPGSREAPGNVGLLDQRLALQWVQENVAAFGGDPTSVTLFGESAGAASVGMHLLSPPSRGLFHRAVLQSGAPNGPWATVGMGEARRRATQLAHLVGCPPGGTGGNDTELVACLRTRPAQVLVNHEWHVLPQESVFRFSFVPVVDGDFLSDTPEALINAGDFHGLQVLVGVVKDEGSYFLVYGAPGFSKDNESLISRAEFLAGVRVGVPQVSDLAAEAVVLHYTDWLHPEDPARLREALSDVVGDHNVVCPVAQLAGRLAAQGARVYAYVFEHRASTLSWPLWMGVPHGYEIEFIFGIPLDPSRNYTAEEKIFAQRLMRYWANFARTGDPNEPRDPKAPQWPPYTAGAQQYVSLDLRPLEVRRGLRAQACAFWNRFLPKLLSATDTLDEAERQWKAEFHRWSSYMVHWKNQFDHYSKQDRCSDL
T1 sequence (Q9UL62 whole entry F576A): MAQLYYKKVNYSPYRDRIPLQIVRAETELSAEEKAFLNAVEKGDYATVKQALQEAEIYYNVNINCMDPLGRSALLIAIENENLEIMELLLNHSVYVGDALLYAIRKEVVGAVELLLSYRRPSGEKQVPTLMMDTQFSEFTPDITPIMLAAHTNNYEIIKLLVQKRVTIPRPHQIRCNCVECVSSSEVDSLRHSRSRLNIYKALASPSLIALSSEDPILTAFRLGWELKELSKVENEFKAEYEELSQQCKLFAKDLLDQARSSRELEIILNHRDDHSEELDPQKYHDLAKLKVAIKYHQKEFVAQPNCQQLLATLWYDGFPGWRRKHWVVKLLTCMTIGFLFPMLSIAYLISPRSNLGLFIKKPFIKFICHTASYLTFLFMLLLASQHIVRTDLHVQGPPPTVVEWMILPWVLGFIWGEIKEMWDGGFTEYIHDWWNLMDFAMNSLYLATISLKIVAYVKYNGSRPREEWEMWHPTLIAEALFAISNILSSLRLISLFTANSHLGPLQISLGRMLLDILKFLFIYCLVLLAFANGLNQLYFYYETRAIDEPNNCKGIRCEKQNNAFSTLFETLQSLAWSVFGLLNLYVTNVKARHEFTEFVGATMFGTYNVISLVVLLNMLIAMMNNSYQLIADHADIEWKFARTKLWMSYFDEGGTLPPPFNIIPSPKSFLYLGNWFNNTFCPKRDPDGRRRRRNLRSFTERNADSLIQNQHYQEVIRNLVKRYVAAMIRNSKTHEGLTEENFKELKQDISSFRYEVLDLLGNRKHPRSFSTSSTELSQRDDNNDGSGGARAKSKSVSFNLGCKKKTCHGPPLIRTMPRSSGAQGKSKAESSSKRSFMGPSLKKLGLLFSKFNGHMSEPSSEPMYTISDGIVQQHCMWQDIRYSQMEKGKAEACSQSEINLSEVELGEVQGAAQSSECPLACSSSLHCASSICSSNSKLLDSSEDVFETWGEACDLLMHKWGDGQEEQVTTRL

With `O=c1c2c3nc(n2Cc2ccc(Cl)cc2)Oc2ccc(F)c(c2)OCCCCCCn3c(=O)n1CCCO` [JDIC-127], the “effect of mutation on inhibitory potency of JDIC-127” value on TRPC5 F576A was “significantly diminished”. The “Agonist JDIC-127 @10 μmol/L” value at α1A (agonist mode) was 0.76%; on β2 (β2, agonist mode), “–1.53%”; at D2 (D2, agonist mode), “–9.18%”. Further, the inhibition at 10 µM is -3.05% on α1A (antagonist mode, 10 μmol/L, read-out: Antagonist JDIC-127 @10 μmol/L); 19.6% on β2 (β2, antagonist mode, 10 μmol/L, read-out: Antagonist JDIC-127 @10 μmol/L); -1.55% at D2 (D2, antagonist mode, 10 μmol/L, read-out: Antagonist JDIC-127 @10 μmol/L); 15.5% on MAO A; 0.88% on ACHE; 29.4% at LCK. Besides, the inhibition at 10 µM on V1a is -0.83%. Besides, the Kp was 1.1 in the data set “in vivo” (iv, 2 mg/kg, 2 min); 3.85 in the data set “in vivo” (iv, 2 mg/kg, 45 min); 7.4 in “in vivo” (iv, 2 mg/kg, 180 min); 3.48 in the data set “in vivo” (po, 10 mg/kg, 2 min); 2.51 in the data set “in vivo” (po, 10 mg/kg, 45 min); 0.32 in “in vivo” (po, 10 mg/kg, 180 min).
